# Patent publication US20090305993A1, “METHODS AND COMPOSITION FOR THE TREATMENT OF GASTROINTESTINAL DISORDERS” (IRONWOOD PHARMACEUTICALS, INC., priority 2006, published 2009)
# Where a SMILES comes first, the peptide text is derived from it. Bridges are numbered along the chain shown (N, C = ends). Where no end group is shown, it is not given here.
# How the values were obtained:
# [1] = system: mice; assay: murine gastrointestinal transit (GIT) assay, acute dosing; format: in vivo, mouse; details: for gastrointestinal transit rate: oral, SEQ ID NO:4 0.1 mg/kg, Zelnorm 0.1 mg/kg, FIG. 3a, 3b; for intestinal transit rate versus dosage: recombinantly synthesized peptides, FIG. 4a
# Description: In order to determine whether the peptides increase the rate of gastrointestinal transit, the peptides and controls were tested using a murine gastrointestinal transit (GIT) assay (Moon et al. Infection and Immunity 25:127, 1979). In this assay, charcoal, which can be readily visualized in the gastrointestinal tract is administered to mice after the administration of a test compound. The distance traveled by the charcoal is measured and expressed as a percentage of the total length of the […].
# Mice were fasted with free access to water for 12 to 16 hours before the treatment with peptide or control buffer. The peptides were orally administered at 1 μg/kg-1 mg/kg of peptide in buffer (20 mM Tris pH 7.5) 7 minutes before being given an oral dose of 5% Activated Carbon (Aldrich 242276-250G). Control mice were administered buffer only before being given a dose of Activated Carbon. After 15 minutes, the mice were sacrificed and their intestines from the stomach to the cecum were dissected. The total length of the intestine as well as the distance traveled from the stomach to the charcoal front was measured for each animal and the results are expressed as the percent of the total length of the intestine traveled by the charcoal front. All results are reported as the average of 10 mice±standard deviation. A comparison of the distance traveled by the charcoal between the mice treated with peptide versus the mice treated with vehicle alone was performed using a Student's t test and a statistically significant difference was considered for P<0.05. P-values are calculated using a two-sided T-Test assuming unequal variances.
# [2] = system: CD1 female mice; assay: murine gastrointestinal transit assay, chronic dosing; format: in vivo, mouse; details: oral, daily for 5 days; SEQ ID NO:3 0.06 or 0.25 mg/kg; FIG. 4c
# Description: The identical experiment was performed to determine if SEQ ID NO:3 is effective in a chronic dosing treatment regimen. Briefly, 8 week old CD1 female mice are dosed orally once a day for 5 days with either SEQ ID NO:3 (0.06 mg/kg or 0.25 mg/kg in 20 mM Tris pH 7.5) or vehicle alone (20 mM Tris pH 7.5). On the 5th day, a GIT assay is performed identical to that above except 200 μl of a 10% charcoal solution is administered. […] The results are shown side by side with acute dosing (1 day).
# [3] = system: suckling mice; assay: suckling mouse model of intestinal secretion (SuMi assay); format: in vivo
# Description: In this model a test compound is administered to suckling mice that are between 7 and 9 days old. After the mice are sacrificed, the gastrointestinal tract from the stomach to the cecum is dissected (“guts”). The remains (“carcass”) as well as the guts are weighed and the ratio of guts to carcass weight is calculated. If the ratio is above 0.09, one can conclude that the test compound increases intestinal secretion. […] The effect of Zelnorm® was also studied.
# [4] = system: mouse; assay: phenylbenzoquinone (PBQ)-induced writhing model; details: oral; SEQ ID NO:5 1 mg/kg, SEQ ID NO:3 2.5 mg/kg; versus vehicle control, FIGS. 8a, 8b
# [5] = target: T1, intestinal GC-C receptor (Homo sapiens, UniProt P25092); assay: intestinal GC-C receptor activity assay (cyclic GMP EIA) in T84 cells; format: cell-based; details: chemically synthesized peptides, FIGS. 2a and 2b
# T1 construct: monolayers of T84 cells in 24-well plates; host or cells: T84 human colon carcinoma cells
# Description: The ability of SEQ ID NO:5, SEQ ID NO:4, SEQ ID NO:3, and SEQ ID NO:6 to activate the intestinal GC-C receptor was assessed in an assay employing the T84 human colon carcinoma cell line (American Type Culture Collection (Bethesda, Md.)). For the assays cells were grown to confluency in 24-well culture plates with a 1:1 mixture of Ham's F12 medium and Dulbecco's modified Eagle's medium (DMEM), supplemented with 5% fetal calf serum and were used at between passages 54 and 60.
# Briefly, monolayers of T84 cells in 24-well plates were washed twice with 1 ml/well DMEM, then incubated at 37° C. for 10 min with 0.45 ml DMEM containing 1 mM isobutylmethylxanthine (IBMX), a cyclic nucleotide phosphodiesterase inhibitor. Test peptides (50 μl) were then added and incubated for 30 minutes at 37° C. The media was aspirated and the reaction was then terminated by the addition of ice cold 0.5 ml of 0.1N HCl. The samples were held on ice for 20 minutes and then evaporated to dryness using a heat gun or vacuum centrifugation.
# [6] = target: T2, GC-C receptors found in rat intestinal mucosa (Rattus norvegicus, UniProt P23897); details: same assay, observed by Giannella et al.; cited from earlier work
# T2 construct: Epithelial cells from the small intestine of rats were obtained; from tissue; host or cells: rat small intestine mucosa / epithelial cell suspension
# [7] = oral bioavailability in rats, LCMS; format: in vivo, rat; details: plasma
# Description: Similarly, oral bioavailability was determined in rats using LCMS methodology. Rat plasma samples containing SEQ ID NO:3 and/or SEQ ID NO:6 were extracted using a Waters Oasis MAX 96 well solid phase extraction (SPE) plate. A 200 μL volume of rat plasma was mixed with 200 μL of ^13C9, ^15N—SEQ ID NO:3 in the well of a prepared SPE plate. The samples were drawn through the stationary phase with 15 mm Hg vacuum. All samples were rinsed with 200 μL of 2% ammonium hydroxide in water followed by 200 μL of 20% methanol in water. The samples were eluted with consecutive 100 μL volumes of […] formic acid/water/methanol and 100 μL 5/15/80 formic acid/water/methanol. The samples were dried under nitrogen and resuspended in 100 μL of 20% methanol in water. Samples were analyzed by a Waters Quattro Micro mass spectrometer coupled to a Waters 1525 binary pump with a Waters 2777 autosampler. A 40 μL volume of each sample was injected onto a Thermo Hypersil GOLD C18 column (2.1×50 mm, 5 um). SEQ ID NO:3 and SEQ ID NO:6 were eluted by a gradient over 3 minutes with acetonitrile and water containing 0.05% trifluoroacetic acid. The Quattro Micro mass spectrometer was run in multiple reaction monitoring (MRM) mode using the mass transitions of 764>182 and 682>136 for SEQ ID NO:3 and SEQ ID NO:6 respectively. Using this methodology, SEQ ID NO:3 was dosed orally and by IV to rats at 10 mg/kg. […] In this experiment, the limit of detection (LOD) for SEQ ID NO:6 was 0.78 nM. SEQ ID NO:6 was detected at all time points for the intravenous dose and was not detected beyond 240 min for the oral dose. For non-detected values, the LOD was used as an upper estimate of the concentration of SEQ ID NO:6. The calculated value for AUCp.o., (0-6h) was <1308 nM-min and AUCi.v.,(0-6h) was 1,590,000 nM-min. The 6 h bioavailability of SEQ ID NO:6 determined by circulating plasma levels was 0.08%
# [8] = target: T3, carboxypeptidase A (Homo sapiens, UniProt P15085); assay: in vitro proteolytic stability, carboxypeptidase A
# T3 sequence (P15085 111-419): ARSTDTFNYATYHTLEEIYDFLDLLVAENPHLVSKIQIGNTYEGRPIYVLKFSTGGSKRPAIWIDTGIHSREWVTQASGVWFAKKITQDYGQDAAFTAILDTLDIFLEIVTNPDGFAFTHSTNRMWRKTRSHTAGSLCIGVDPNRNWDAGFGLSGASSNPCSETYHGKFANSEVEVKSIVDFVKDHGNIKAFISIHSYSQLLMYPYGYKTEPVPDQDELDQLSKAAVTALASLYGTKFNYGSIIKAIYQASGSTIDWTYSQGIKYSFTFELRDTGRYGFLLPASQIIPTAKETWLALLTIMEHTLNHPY
# Description: The stability of SEQ ID NO:3 in the presence of several mammalian digestive enzymes was determined. SEQ ID NO:3 was exposed to a variety of in vitro conditions including digestive enzymes and low ph environments designed to simulate gastric fluid. SEQ ID NO:3 was incubated with chymotrypsin, trypsin, pepsin, aminopeptidase, carboxypeptidase A, and simulated gastric fluid (sgf) at ph 1.0. Samples were collected at 0, 3, and 24 h for all conditions except pepsin digestion and the SGF. For the latter two conditions, samples were obtained at 0, 1, and 3 h. Negative control samples were prepared for initial and final time points. A separate, positive activity control was run in parallel to SEQ ID NO:3. All samples were analyzed by LC/MS
# Five (5) μL of a 40 μg/mL carboxypeptidase inhibitor (carboxypeptidase inhibitor from potato tuber (Sigma-Aldrich, C0279) stock was added to each control sample (0 and 24 h), for a final concentration of 0.4 μg/mL. All control and test (0, 3 and 24 h) samples were incubated at 37° C. for 5 min. Twenty (20) μL of a 0.01 mg/mL carboxypeptidase A (Carboxypeptidase A from human pancreas; Sigma-Aldrich, C5358) stock was added to each sample. The samples were returned to the 37° C. water bath. The reaction was quenched with 5 μL of a 40 μg/mL carboxypeptidase inhibitor at the proper time point. No extra carboxypeptidase inhibitor was added to the control samples since there was already inhibitor present. Samples were subsequently flash frozen in liquid nitrogen, and stored at −80° C. until analysis. Upon analysis, samples were thawed and transferred to a 1 mL 96-well deep microtiter plate. […] These standards were used to generate a standard curve for quantification of samples. When necessary, the standard curves were also used to calculate the concentration of the corresponding digestion product. Ten (10) μL injections were made of each sample and standard.
# To further study the SEQ ID NO:3 carboxypeptidase A digestion product, samples of 0.01 mg/mL SEQ ID NO:3 were prepared in the carboxypeptidase A reaction buffer at a total volume of 500 μL in 2 mL eppendorf tubes. Triplicate samples were prepared for the following time points: 0, 15, 30, 60, 120, 180 and 240 min. The samples were incubated at 37° C. for 5 min. Twenty (20) μL of a 0.01 mg/mL carboxypeptidase A stock were added to each sample and returned to the 37° C. water bath. The reactions were quenched with 5 μL of a 40 μg/mL carboxypeptidase inhibitor at the proper time points. Samples were subsequently flash frozen in liquid nitrogen, and stored at −80° C. until analysis. Upon analysis, samples were thawed and transferred to a 1 mL 96-well plate. Standards of SEQ ID NO:3 were prepared in carboxypeptidase A reaction buffer at 0.625, 1.25, 2.50, 5.00, and 10.00 μg/mL concentrations. These standards were used to generate a standard curve for quantification of samples. When necessary, the standard curves were also used to calculate the concentration of the corresponding digestion product. Ten (10) μL injections were made of each sample and standard. If the formation of a digestion product was evident, then a spectral analysis was used to determine the mass of the digestion product, and predict its possible identity.
# [9] = recombinant peptides, dose response, FIG. 6a
# T2 sequence (P23897 23-1072): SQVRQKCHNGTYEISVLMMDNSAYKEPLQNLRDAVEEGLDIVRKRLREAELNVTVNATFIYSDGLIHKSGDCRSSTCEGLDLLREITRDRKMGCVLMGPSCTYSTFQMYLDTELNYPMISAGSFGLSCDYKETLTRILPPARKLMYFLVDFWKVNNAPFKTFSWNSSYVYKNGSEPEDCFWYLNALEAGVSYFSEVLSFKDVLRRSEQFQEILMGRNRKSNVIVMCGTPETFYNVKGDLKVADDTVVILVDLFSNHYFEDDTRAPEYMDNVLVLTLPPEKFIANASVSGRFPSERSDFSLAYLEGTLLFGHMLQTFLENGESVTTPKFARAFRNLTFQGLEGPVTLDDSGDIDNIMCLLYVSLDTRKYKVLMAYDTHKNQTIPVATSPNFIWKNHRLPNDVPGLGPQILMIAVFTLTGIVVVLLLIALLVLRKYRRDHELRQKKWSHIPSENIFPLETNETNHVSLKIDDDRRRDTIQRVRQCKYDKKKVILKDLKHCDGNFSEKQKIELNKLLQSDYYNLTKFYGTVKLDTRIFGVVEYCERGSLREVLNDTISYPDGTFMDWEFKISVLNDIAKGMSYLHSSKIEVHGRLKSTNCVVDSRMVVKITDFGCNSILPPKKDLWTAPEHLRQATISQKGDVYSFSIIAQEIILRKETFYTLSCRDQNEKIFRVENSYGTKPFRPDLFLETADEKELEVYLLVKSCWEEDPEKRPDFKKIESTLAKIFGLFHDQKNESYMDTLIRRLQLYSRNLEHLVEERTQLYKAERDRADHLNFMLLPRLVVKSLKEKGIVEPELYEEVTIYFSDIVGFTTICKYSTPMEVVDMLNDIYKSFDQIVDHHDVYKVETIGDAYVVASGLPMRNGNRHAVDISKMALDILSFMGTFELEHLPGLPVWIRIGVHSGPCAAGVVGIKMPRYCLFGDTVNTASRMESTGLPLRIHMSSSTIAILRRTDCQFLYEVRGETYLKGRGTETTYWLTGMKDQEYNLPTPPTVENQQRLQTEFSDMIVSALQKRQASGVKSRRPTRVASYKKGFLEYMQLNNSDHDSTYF
# T1 sequence (P25092 24-1073): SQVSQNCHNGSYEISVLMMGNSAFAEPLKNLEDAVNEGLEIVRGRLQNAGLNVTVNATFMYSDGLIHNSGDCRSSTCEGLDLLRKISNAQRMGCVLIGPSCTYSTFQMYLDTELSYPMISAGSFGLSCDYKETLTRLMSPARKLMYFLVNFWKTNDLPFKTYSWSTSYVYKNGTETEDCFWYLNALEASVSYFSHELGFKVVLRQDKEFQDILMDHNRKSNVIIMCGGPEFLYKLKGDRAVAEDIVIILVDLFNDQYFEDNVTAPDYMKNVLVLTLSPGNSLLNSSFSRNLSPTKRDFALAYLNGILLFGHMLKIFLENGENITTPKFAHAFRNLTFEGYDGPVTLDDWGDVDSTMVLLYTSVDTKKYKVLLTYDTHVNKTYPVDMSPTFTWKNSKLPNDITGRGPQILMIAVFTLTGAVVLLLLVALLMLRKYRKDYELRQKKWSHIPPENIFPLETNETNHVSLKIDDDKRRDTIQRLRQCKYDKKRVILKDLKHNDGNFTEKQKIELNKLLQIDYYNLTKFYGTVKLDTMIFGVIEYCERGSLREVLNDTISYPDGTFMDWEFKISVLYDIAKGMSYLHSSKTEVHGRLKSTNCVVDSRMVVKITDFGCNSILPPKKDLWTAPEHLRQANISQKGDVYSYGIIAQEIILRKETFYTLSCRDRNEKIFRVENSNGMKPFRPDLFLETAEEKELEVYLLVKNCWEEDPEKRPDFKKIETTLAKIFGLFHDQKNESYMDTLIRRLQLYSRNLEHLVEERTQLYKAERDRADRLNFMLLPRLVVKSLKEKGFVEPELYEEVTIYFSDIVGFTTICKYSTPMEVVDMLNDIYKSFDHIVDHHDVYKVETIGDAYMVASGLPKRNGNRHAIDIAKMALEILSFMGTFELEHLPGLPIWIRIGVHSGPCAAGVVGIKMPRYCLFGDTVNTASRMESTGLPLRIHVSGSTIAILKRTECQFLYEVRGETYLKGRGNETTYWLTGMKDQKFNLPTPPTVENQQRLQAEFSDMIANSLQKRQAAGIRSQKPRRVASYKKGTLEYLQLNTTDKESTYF
compound,measurement,setting,value
"[H]/N=C(/NCCCCC)N/N=C/c1c[nH]c2ccc(OC)cc12 [Zelnorm®, tegaserod, reference compound]",gastrointestinal transit rate,[1],increase gastrointestinal transit rate
same,gastrointestinal motility upon chronic dosing,[2],effective
same,intestinal secretion (ratio of guts to carcass weight),[3]; 0.2 mg/kg,does not increase intestinal secretion
NSSNYCCEYCCNPACTGCY (cysteine pairing not given here) [SEQ ID NO:5],intestinal transit rate versus dosage,[1],increases with an increasing dosage
same,intestinal secretion (ratio of guts to carcass weight),[3]; [9],increase intestinal secretion
same,writhings,[4],Significant reductions in writhings
NSSNYCCELCCNPACTGCY [SEQ ID NO:4],activity in GC-C receptor activity assay,[5],activity comparable to SEQ ID NO:4
same,intestinal transit rates versus Tris buffer and Zelnorm,"[1]; chemically synthesized peptides, FIG. 4b",increase intestinal transit rates more than either Tris buffer alone or an equivalent dose of Zelnorm®
same,gastrointestinal transit rate,[1],increase gastrointestinal transit rate
same,intestinal transit rate versus dosage,[1],increases with an increasing dosage
same,intestinal secretion (ratio of guts to carcass weight),"[3]; dose response, FIG. 5a, 5b",increase intestinal secretion
same,intestinal secretion (ratio of guts to carcass weight),[3]; [9],increase intestinal secretion
same,Kd,[6],~13 nM
"C[C@@H]1NC(=O)[C@@H]2CCCN2C(=O)[C@H](CC(N)=O)NC(=O)[C@@H]2CSSC[C@H](N)C(=O)N[C@H]3CSSC[C@H](NC1=O)C(=O)N[C@@H]([C@@H](C)O)C(=O)NCC(=O)N[C@H](C(=O)O)CSSC[C@H](NC(=O)[C@H](Cc1ccc(O)cc1)NC(=O)[C@H](CCC(=O)O)NC3=O)C(=O)N2 [SEQ ID NO:6] (H-CCEYCCNPACTGC-OH; disulfide 1-6, 2-10, 5-13)","AUC, intravenous dose (AUCi.v.,(0-6h))",[7]; 10 mg/kg IV,"1,590,000 nM-min"
same,"AUC, oral dose (AUCp.o.,(0-6h))",[7]; 10 mg/kg oral,< 1308 nM-min
same,average concentration,"[8]; carboxypeptidase A digestion of SEQ ID NO:3, T0",108 (+/−2) nM
same,average concentration,"[8]; carboxypeptidase A digestion of SEQ ID NO:3, T240 (240 min)",726 (+/−138) nM
